The text below walks through data of patent US12581252B2, “Substituted pyrrolo[3,4-b]pyridines as PI3K-α inhibitors” (Relay Therapeutics, Inc., priority 2020, dated 2026).

A value given as a limit tells only on which side of the number the result lay.

One assay deals with H1047R PIK3CA enzyme (Homo sapiens, UniProt P42336, H1047R). The assay can be described thus: ADP-Glo Biochemical PIK3CA Kinase Assay.
Sequence of H1047R PIK3CA enzyme (P42336 whole entry H1047R): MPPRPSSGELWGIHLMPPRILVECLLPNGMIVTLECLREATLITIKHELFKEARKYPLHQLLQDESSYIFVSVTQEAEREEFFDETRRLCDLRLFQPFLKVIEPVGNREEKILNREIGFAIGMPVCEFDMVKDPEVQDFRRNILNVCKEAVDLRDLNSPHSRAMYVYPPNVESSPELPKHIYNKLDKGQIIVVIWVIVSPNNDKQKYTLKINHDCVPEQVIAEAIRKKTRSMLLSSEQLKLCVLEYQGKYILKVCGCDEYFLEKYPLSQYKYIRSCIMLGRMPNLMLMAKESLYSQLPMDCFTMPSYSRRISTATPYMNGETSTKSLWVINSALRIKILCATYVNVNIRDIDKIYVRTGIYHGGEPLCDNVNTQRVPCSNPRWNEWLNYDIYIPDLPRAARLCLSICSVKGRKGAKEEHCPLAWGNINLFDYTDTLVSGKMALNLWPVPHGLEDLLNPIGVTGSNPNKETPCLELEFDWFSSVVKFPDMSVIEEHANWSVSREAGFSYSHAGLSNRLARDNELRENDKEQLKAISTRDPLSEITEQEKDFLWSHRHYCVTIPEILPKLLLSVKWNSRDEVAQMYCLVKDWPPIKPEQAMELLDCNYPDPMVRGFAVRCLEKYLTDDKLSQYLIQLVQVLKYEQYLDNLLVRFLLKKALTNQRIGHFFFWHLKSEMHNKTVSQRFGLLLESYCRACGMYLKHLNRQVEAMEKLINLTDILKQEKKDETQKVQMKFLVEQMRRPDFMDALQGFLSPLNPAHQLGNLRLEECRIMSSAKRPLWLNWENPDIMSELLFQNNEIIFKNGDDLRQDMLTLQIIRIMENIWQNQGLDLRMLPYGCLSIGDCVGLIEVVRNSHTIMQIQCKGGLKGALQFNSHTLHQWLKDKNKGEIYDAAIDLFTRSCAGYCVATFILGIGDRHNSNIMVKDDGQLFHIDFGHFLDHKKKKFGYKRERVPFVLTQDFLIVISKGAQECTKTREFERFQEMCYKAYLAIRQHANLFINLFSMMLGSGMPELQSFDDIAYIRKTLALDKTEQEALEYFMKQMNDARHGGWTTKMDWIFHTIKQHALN
Sequence of H1047R PIK3CA enzyme (P27986 whole entry partner): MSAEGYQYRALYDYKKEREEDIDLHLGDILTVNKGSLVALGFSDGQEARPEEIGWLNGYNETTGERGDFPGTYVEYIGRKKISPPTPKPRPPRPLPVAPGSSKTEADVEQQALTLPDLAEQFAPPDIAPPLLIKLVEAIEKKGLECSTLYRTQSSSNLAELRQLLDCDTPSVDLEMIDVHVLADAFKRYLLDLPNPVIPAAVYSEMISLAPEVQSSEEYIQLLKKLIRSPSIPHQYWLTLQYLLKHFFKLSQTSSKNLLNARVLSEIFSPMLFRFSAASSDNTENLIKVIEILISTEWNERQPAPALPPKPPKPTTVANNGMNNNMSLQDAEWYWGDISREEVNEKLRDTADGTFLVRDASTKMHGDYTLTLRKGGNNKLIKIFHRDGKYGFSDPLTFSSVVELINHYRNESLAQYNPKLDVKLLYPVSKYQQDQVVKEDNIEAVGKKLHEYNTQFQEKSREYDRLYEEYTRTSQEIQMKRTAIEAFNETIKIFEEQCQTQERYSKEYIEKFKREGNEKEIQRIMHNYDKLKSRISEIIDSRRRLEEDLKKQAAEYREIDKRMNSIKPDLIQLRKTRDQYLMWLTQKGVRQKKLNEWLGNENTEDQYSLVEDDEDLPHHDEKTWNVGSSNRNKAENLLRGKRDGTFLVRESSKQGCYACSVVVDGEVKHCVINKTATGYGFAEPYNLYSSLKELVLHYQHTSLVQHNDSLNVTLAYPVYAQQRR
Conditions: not given
The compound `O=C(Nc1cc(-c2ccc3ncncc3c2)cc2c1C(c1cc(F)ccc1Cl)NC2=O)c1cc(F)cc(C(F)(F)F)c1` (stereo not shown) [Compound I-1093] displayed an IC50 of no more than 100 nM.

In turn, `O=C(Nc1cc(-c2cncnc2)cc2c1[C@H](c1cc(F)ccc1Cl)NC2=O)c1cc(F)cc(C(F)(F)F)c1` [Compound I-1095] displayed an IC50 of no more than 100 nM.

Turning to `CC(C)(O)Cn1cc(-c2cc(NC(=O)c3cc(F)cc(C(F)(F)F)c3)c3c(c2)C(=O)N[C@H]3c2cc(F)ccc2Cl)cn1` [Compound I-1097], the IC50 is no more than 100 nM.

Take `N#Cc1cnccc1-c1cc(NC(=O)c2cc(F)cc(C(F)(F)F)c2)c2c(c1)C(=O)NC2c1cc(F)ccc1Cl` (stereo not shown) [Compound I-1098]: the IC50 is no more than 100 nM.

With `O=C(Nc1cc(Nc2nnco2)cc2c1C(c1cc(F)ccc1Cl)NC2=O)c1cc(F)cc(C(F)(F)F)c1` (stereo not shown) [Compound I-1099], the IC50 is no more than 100 nM.

`O=C(Nc1cc(-c2nc3ccccc3[nH]2)cc2c1C(c1cc(F)ccc1Cl)NC2=O)c1cc(F)cc(C(F)(F)F)c1` (stereo not shown) [Compound I-1101] registered an IC50 of no more than 100 nM.

Consider `Nc1cnc(-c2cc(NC(=O)c3cc(F)cc(C(F)(F)F)c3)c3c(c2)C(=O)NC3c2cc(F)ccc2Cl)cn1` (stereo not shown) [Compound I-1102], for which the IC50 was no more than 100 nM.

Regarding `O=C(Nc1cc(C2CN(c3ccncn3)C2)cc2c1C(c1cc(F)ccc1Cl)NC2=O)c1cc(F)cc(C(F)(F)F)c1` (stereo not shown) [Compound I-1104], the IC50 is no more than 100 nM.

`COc1nccc(-c2cc(NC(=O)c3cc(F)cc(C(F)(F)F)c3)c3c(c2)C(=O)NC3c2cc(F)ccc2Cl)n1` (stereo not shown) [Compound I-1105] yielded an IC50 of no more than 100 nM.

The compound `O=C1N[C@@H](c2cc(F)ccc2Cl)c2c(Nc3nccc4c(C(F)(F)F)cc(F)cc34)cc(Br)cc21` [Compound I-1109] gave an IC50 of no more than 100 nM.

The compound `O=C(Nc1cc(Nc2cc[nH]n2)cc2c1C(c1cc(F)ccc1Cl)NC2=O)c1cc(F)cc(C(F)(F)F)c1` (stereo not shown) [Compound I-1112] yielded an IC50 of no more than 100 nM.

As for `Cc1nc2ccc(-c3cc(NC(=O)c4cc(F)cc(C(F)(F)F)c4)c4c(c3)C(=O)NC4c3cc(F)ccc3Cl)cn2n1` (stereo not shown) [Compound I-1123], the IC50 was no more than 100 nM.

Compound `Cc1nc2ncc(-c3cc(NC(=O)c4cc(F)cc(C(F)(F)F)c4)c4c(c3)C(=O)NC4c3cc(F)ccc3Cl)cn2n1` (stereo not shown) [Compound I-1124] gave an IC50 of no more than 100 nM.

`O=C(Nc1cc(-n2cc(F)cn2)cc2c1C(c1cc(F)ccc1Cl)NC2=O)c1cc(F)cc(C(F)(F)F)c1` (stereo not shown) [Compound I-1146] came in with an IC50 of no more than 100 nM.

In turn, `COc1c(F)cccc1-c1cc(NC(=O)c2cc(F)cc(C(F)(F)F)c2)c2c(c1)C(=O)NC2c1cc(F)ccc1Cl` (stereo not shown) [Compound I-1156] showed an IC50 of no more than 100 nM.

`N#CN1CC(c2cc(NC(=O)c3cc(F)cc(C(F)(F)F)c3)c3c(c2)C(=O)NC3c2cc(F)ccc2Cl)C1` (stereo not shown) [Compound I-1157] returned an IC50 of no more than 100 nM.

`N#CCN1CC(c2cc(NC(=O)c3cc(F)cc(C(F)(F)F)c3)c3c(c2)C(=O)NC3c2cc(F)ccc2Cl)C1` (stereo not shown) [Compound I-1158]: the IC50 was no more than 100 nM.

Consider `CS(=O)(=O)Nc1cc(NC(=O)c2cc(F)cc(C(F)(F)F)c2)c2c(c1)C(=O)NC2c1cc(F)ccc1Cl` (stereo not shown) [Compound I-1159], for which the IC50 is no more than 100 nM.

Turning to `N#CCOc1cc(NC(=O)c2cc(F)cc(C(F)(F)F)c2)c2c(c1)C(=O)NC2c1cc(F)ccc1Cl` (stereo not shown) [Compound I-1160], the IC50 was no more than 100 nM.

`O=C1NC(c2cc(F)ccc2Cl)c2c(NC(=O)c3cc(F)cc4c(Cl)c[nH]c34)cccc21` (stereo not shown) [Compound I-1161] displayed a concentration for half-maximal inhibition (IC50) of 100 to 500 nM.

Consider `COc1nccc(N2CC(c3cc(NC(=O)c4cc(F)cc(C(F)(F)F)c4)c4c(c3)C(=O)NC4c3cc(F)ccc3Cl)C2)n1` (stereo not shown) [Compound I-1162], for which the IC50 is no more than 100 nM.

On to `C#Cc1ccccc1-c1cc(NC(=O)c2cc(F)cc(C(F)(F)F)c2)c2c(c1)C(=O)NC2c1cc(F)ccc1Cl` (stereo not shown) [Compound I-1163], for which the IC50 is no more than 100 nM.

With `O=C(Nc1cc(N2CCOCC2)cc2c1C(c1cc(F)ccc1Cl)NC2=O)c1cc(F)cc(C(F)(F)F)c1` (stereo not shown) [Compound I-1164], the IC50 is no more than 100 nM.

Test system in another assay: not listed separately
The assay can be described thus: cells. The note with it: Homo sapiens, MCF-10A, read-out: MCF10A IC50.
As for `O=C(Nc1cc(-c2ccc3ncncc3c2)cc2c1C(c1cc(F)ccc1Cl)NC2=O)c1cc(F)cc(C(F)(F)F)c1` (stereo not shown) [Compound I-1093], the IC50 is less than 1000 nM.

`O=C(Nc1cc(-c2cncnc2)cc2c1[C@H](c1cc(F)ccc1Cl)NC2=O)c1cc(F)cc(C(F)(F)F)c1` [Compound I-1095]: the IC50 was less than 1000 nM.

On to `CC(C)(O)Cn1cc(-c2cc(NC(=O)c3cc(F)cc(C(F)(F)F)c3)c3c(c2)C(=O)N[C@H]3c2cc(F)ccc2Cl)cn1` [Compound I-1097], for which the half-maximal inhibitory concentration (IC50) was less than 1000 nM.

Turning to `N#Cc1cnccc1-c1cc(NC(=O)c2cc(F)cc(C(F)(F)F)c2)c2c(c1)C(=O)NC2c1cc(F)ccc1Cl` (stereo not shown) [Compound I-1098], the IC50 is less than 1000 nM.

In the case of `O=C(Nc1cc(Nc2nnco2)cc2c1C(c1cc(F)ccc1Cl)NC2=O)c1cc(F)cc(C(F)(F)F)c1` (stereo not shown) [Compound I-1099], the IC50 is less than 1000 nM.

Consider `O=C(Nc1cc(-c2nc3ccccc3[nH]2)cc2c1C(c1cc(F)ccc1Cl)NC2=O)c1cc(F)cc(C(F)(F)F)c1` (stereo not shown) [Compound I-1101], for which the IC50 was less than 1000 nM.

As to `Nc1cnc(-c2cc(NC(=O)c3cc(F)cc(C(F)(F)F)c3)c3c(c2)C(=O)NC3c2cc(F)ccc2Cl)cn1` (stereo not shown) [Compound I-1102], the IC50 is less than 1000 nM.

As to `O=C(Nc1cc(C2CN(c3ccncn3)C2)cc2c1C(c1cc(F)ccc1Cl)NC2=O)c1cc(F)cc(C(F)(F)F)c1` (stereo not shown) [Compound I-1104], the IC50 was less than 1000 nM.

For `COc1nccc(-c2cc(NC(=O)c3cc(F)cc(C(F)(F)F)c3)c3c(c2)C(=O)NC3c2cc(F)ccc2Cl)n1` (stereo not shown) [Compound I-1105], the IC50 is less than 1000 nM.

Turning to `O=C1N[C@@H](c2cc(F)ccc2Cl)c2c(Nc3nccc4c(C(F)(F)F)cc(F)cc34)cc(Br)cc21` [Compound I-1109], the half-inhibitory concentration (IC50) is less than 1000 nM.

Regarding `O=C(Nc1cc(Nc2cc[nH]n2)cc2c1C(c1cc(F)ccc1Cl)NC2=O)c1cc(F)cc(C(F)(F)F)c1` (stereo not shown) [Compound I-1112], the IC50 was less than 1000 nM.

Regarding `Cc1nc2ccc(-c3cc(NC(=O)c4cc(F)cc(C(F)(F)F)c4)c4c(c3)C(=O)NC4c3cc(F)ccc3Cl)cn2n1` (stereo not shown) [Compound I-1123], the IC50 was less than 1000 nM.

For the compound `Cc1nc2ncc(-c3cc(NC(=O)c4cc(F)cc(C(F)(F)F)c4)c4c(c3)C(=O)NC4c3cc(F)ccc3Cl)cn2n1` (stereo not shown) [Compound I-1124], the IC50 is less than 1000 nM.

For `O=C(Nc1cc(-n2cc(F)cn2)cc2c1C(c1cc(F)ccc1Cl)NC2=O)c1cc(F)cc(C(F)(F)F)c1` (stereo not shown) [Compound I-1146], the IC50 was less than 1000 nM.

For the compound `COc1c(F)cccc1-c1cc(NC(=O)c2cc(F)cc(C(F)(F)F)c2)c2c(c1)C(=O)NC2c1cc(F)ccc1Cl` (stereo not shown) [Compound I-1156], the IC50 was less than 1000 nM.

As to `N#CN1CC(c2cc(NC(=O)c3cc(F)cc(C(F)(F)F)c3)c3c(c2)C(=O)NC3c2cc(F)ccc2Cl)C1` (stereo not shown) [Compound I-1157], the IC50 was in the range of 5000 to 10000 nM.

In the case of `N#CCN1CC(c2cc(NC(=O)c3cc(F)cc(C(F)(F)F)c3)c3c(c2)C(=O)NC3c2cc(F)ccc2Cl)C1` (stereo not shown) [Compound I-1158], the IC50 was less than 1000 nM.

Take `CS(=O)(=O)Nc1cc(NC(=O)c2cc(F)cc(C(F)(F)F)c2)c2c(c1)C(=O)NC2c1cc(F)ccc1Cl` (stereo not shown) [Compound I-1159]: the IC50 was less than 1000 nM.

Take `N#CCOc1cc(NC(=O)c2cc(F)cc(C(F)(F)F)c2)c2c(c1)C(=O)NC2c1cc(F)ccc1Cl` (stereo not shown) [Compound I-1160]: the IC50 was less than 1000 nM.

On to `O=C1NC(c2cc(F)ccc2Cl)c2c(NC(=O)c3cc(F)cc4c(Cl)c[nH]c34)cccc21` (stereo not shown) [Compound I-1161], for which the IC50 was in the range of 1000 to 5000 nM.

For the compound `COc1nccc(N2CC(c3cc(NC(=O)c4cc(F)cc(C(F)(F)F)c4)c4c(c3)C(=O)NC4c3cc(F)ccc3Cl)C2)n1` (stereo not shown) [Compound I-1162], the IC50 is less than 1000 nM.

With `C#Cc1ccccc1-c1cc(NC(=O)c2cc(F)cc(C(F)(F)F)c2)c2c(c1)C(=O)NC2c1cc(F)ccc1Cl` (stereo not shown) [Compound I-1163], the IC50 was less than 1000 nM.

With `O=C(Nc1cc(N2CCOCC2)cc2c1C(c1cc(F)ccc1Cl)NC2=O)c1cc(F)cc(C(F)(F)F)c1` (stereo not shown) [Compound I-1164], the IC50 was less than 1000 nM.
